Experiments:
CDK5 = CDK5 (Homo sapiens, UniProt Q00535); assay: direct assay of dexanabinol against CDK5; assay type: biochemical; conditions: when directly assayed; heading names CDK5/p25
Text: (§1) However, we believe that CDKs are affected indirectly, in circumstances where more of the intracellular network that might mediate such effects remains present.

CDK2 = CDK2 (Homo sapiens, UniProt P24941); assay: direct assay of dexanabinol against CDK2; assay type: biochemical; conditions: when directly assayed; heading names CDK2/A
Text: as §1

Chain of CDK5 (Q00535 whole entry, species assumed): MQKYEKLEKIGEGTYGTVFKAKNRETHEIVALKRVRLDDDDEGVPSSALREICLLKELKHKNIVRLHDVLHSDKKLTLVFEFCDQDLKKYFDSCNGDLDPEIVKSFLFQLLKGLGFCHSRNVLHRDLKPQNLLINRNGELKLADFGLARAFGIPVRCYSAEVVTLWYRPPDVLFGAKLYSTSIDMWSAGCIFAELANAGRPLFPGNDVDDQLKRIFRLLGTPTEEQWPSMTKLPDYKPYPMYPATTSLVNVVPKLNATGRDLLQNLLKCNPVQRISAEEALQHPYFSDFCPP
Chain of CDK5 (Q15078 99-307 partner limits assumed, species assumed): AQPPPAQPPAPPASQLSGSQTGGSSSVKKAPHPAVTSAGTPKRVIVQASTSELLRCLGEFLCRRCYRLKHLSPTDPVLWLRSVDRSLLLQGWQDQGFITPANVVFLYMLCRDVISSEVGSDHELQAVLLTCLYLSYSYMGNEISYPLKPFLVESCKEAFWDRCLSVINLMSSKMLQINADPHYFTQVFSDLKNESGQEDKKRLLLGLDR

Question: Which results are given for `CCCCCCC(C)(C)c1cc(O)c2c(c1)OC(C)(C)[C@H]1CC=C(CO)C[C@H]21` [Dexanabinol, 1, 1 dimethyl heptyl-(3S, 4S)-7-hydroxy-Δ^6-tetrahydrocannabinol]?
Answer: direct activity against CDK5 (CDK5): no significant direct activity; direct activity against CDK2 (CDK2): no significant direct activity

Source: patent US20150072020A1, “Dexanabinol or a Derivative Thereof for Use in the Treatment of Cancer in Dose Ranges of 2-30 mg/kg” (E-THERAPEUTICS PLC, priority 2012, published 2015)
